Article PMC8105289 (European journal of medicinal chemistry, 2021)
Marks after values point to notes of the source that are not given here.

How the values were obtained:
[1] = pKa by potentiometric titration
[2] = logP / logD7.4 by potentiometric titration; conditions: for logP: n-octanol/water; for logD: n-octanol/aqueous buffer, pH 7.4
[3] = Parallel artificial membrane permeability assay; conditions: for Papp: PAMPA; for PAMPA logPapp: log of the apparent permeability coefficient; for PAMPA % retention (membrane retention): Corning Gentest pre-coated PAMPA plate, HPLC-UV
[4] = logD7.4 by shake-flask method; conditions: for logD: n-octanol/aqueous buffer, pH 7.4
shake-flask = conditions: not told
potentiometric titration = conditions: not told
[5] = potentiometric titration, Sirius T3, 0.15 M KCl
[6] = potentiometric titration, Sirius T3
[7] = ionic strength adjusted water (0.15 M KCl), pKa units higher than the pKa value of 9
[8] = ionic strength adjusted water (0.15 M KCl), pKa, potentiometric titration, Sirius T3, 0.15 M KCl

Row | Papp [3] [×10⁻⁶ cm/s] | PAMPA logPapp [3] | logD [4] | log partition n-octanol / aqueous buffer pH 7.4 (shake-flask) [log10 concentration ratio] | log partition n-octanol / aqueous buffer pH 7.4 (potentiometric titration) [log10 concentration ratio] | log partition n-octanol / water (0.15 M KCl) (potentiometric titration) [log10 concentration ratio] | logD [2] | logP [2] | further results | Structure (SMILES)
1 | – | – | – | – | – | – | – | – | pKa units higher than the pKa value of 9 [1]: > 5; pKa [1, 5]: 9.87±0.01; logP [2, 6]: 0.88±0.02 | CS(=O)(=O)N[C@]1(CCc2ccccc2)C[S@+]([O-])C1 [Compound 21, cis-N-(1-Oxido-3-phenethylthietan-3-yl)methanesulfonamide]
2 | 14.6 | −4.8 | 2.44 | 2.44 | – | – | – | – | pKa [1, 7]: > 5 | CS(=O)(=O)NC1(CCc2ccccc2)CSC1 [Compound 18, N-(3-Phenethylthietan-3-yl)methanesulfonamide]
3 | – | −5.47 | – | – | – | – | – | – | logD7.4 ([4]; n-octanol/aqueous buffer pH 7.4, shake-flask assay run by Analiza): 1.45^†; pKa [1, 5]: 10.33±0.02 | CN(C)S(=O)(=O)N[C@]1(CCc2ccccc2)C[S@+]([O-])C1 [Compound 23, cis-3-[(Dimethylsulfamoyl)amino]-3-(2-phenylethyl)-1lambda4-thietan-1-one]
4 | 2.11 | −5.68 | 1.18 | 1.18 | – | – | – | – | pKa [1, 8]: > 12 | CC(=O)NC1(CCc2ccccc2)CS(=O)(=O)C1 [Compound 14, N-(1,1-Dioxido-3-phenethylthietan-3-yl)acetamide]
5 | 7.06 | −5.2 | 2.76 | 2.76 | – | – | – | – | PAMPA % retention (membrane retention) [3]: 0.260% | O=S(=O)(NC1(CCc2ccccc2)COC1)c1ccccc1 [Compound 16, N-(3-Phenethyloxetan-3-yl)benzenesulfonamide]
6 | 4.43 | −5.35 | – | – | 1.82 | 1.83±0.05 | 1.82 | 1.83 ± 0.05 | PAMPA % retention (membrane retention) [3]: 0.105% | CN(C)S(=O)(=O)NC1(CCc2ccccc2)CS(=O)(=O)C1 [Compound 26, 3-[(Dimethylsulfamoyl)amino]-3-(2-phenylethyl)-1lambda6-thietane-1,1-dione]
7 | – | – | – | 0.76 | – | – | – | – | – | O=S1CC(CCc2ccccc2)(NS(=O)(=O)c2ccccc2)C1 (stereo not drawn)
8 | 1.16 | −5.94 | – | – | −0.42 | 0.58±0.02 | -0.42 | 0.58 ± 0.02 | – | CS(=O)(=O)Nc1cc(-c2ccccc2)on1 [Compound 27, N-(5-Phenylisoxazol-3-yl)methanesulfonamide]
9 | 6.79 | −5.17 | – | – | 1.58 | 1.58±0.06 | 1.58 | 1.58 ± 0.06 | ΔlogPcyclohexane (ΔlogP; logPoctanol-water − logPcyclohexane-water): 1.87 ± 0.04; ΔlogPheptane (ΔlogP; logPoctanol-water − logPheptane-water): 1.60 ± 0.05; ΔlogPtoluene (ΔlogP; logPoctanol-water − logPtoluene-water): 0.43 ± 0.04 | CC1(NS(=O)(=O)CCc2ccccc2)COC1 [Compound 13, N-(3-Methyloxetan-3-yl)-2-phenylethane-1-sulfonamide]
10 | 10.2 | −4.99 | 1.96 | 1.96 | – | – | – | – | – | CN(C)S(=O)(=O)NC1(CCc2ccccc2)COC1 [Compound 17, N,N-Dimethyl-[3-(2-phenylethyl)oxetane-3-yl]sulfamoyl-amine]
11 | 4.09 | −5.39 | – | – | 1.06 | 2.55±0.04 | 1.06 | 2.55 ± 0.04 | – | O=S(=O)(Nc1cn(-c2ccccc2)nn1)c1ccccc1 [Compound 31, N-(1-Phenyl-1H-1,2,3-triazol-4-yl)benzenesulfonamide]
12 | – | – | 1.89 | 1.89 | – | – | – | – | – | O=S1(=O)CC(CCc2ccccc2)(NS(=O)(=O)c2ccccc2)C1 [Compound 25, N-(1,1-Dioxido-3-phenethylthietan-3-yl)benzenesulfonamide]
13 | 3.66 | −5.4 | – | – | 1.03 | 1.03±0.01 | 1.03 | 1.03 ± 0.01 | pKa [1, 7]: > 5 | CS(=O)(=O)NC1(CCc2ccccc2)CS(=O)(=O)C1 [Compound 24, N-(1,1-Dioxido-3-phenethylthietan-3-yl)methanesulfonamide]
14 | 5.79 | −5.24 | – | – | 0.99 | 1.76±0.03 | 0.99 | 1.76 ± 0.03 | – | O=S(=O)(Nc1cc(-c2ccccc2)on1)c1ccccc1 [Compound 28, N-(5-Phenylisoxazol-3-yl)benzenesulfonamide]
15 | – | – | – | – | 0.87 | 0.88±0.02 | – | – | – | CS(=O)(=O)NC1(CCc2ccccc2)CS(=O)C1 (stereo not drawn)
16 | – | −5.42 | – | – | 0.69 | 1.72±0.01 | – | – | pKa [1, 5]: 6.42±0.01; logP [2, 6]: 1.72±0.01 | CN(C)S(=O)(=O)Nc1cn(-c2ccccc2)nn1 [Compound 32, N-(1-Phenyl-1H-1,2,3-triazol-4-yl)-N,N-dimethylaminesulfonamide]
17 | – | – | 2.96 | 2.96 | – | – | – | – | pKa [1, 8]: > 12 | O=S(=O)(NC1(CCc2ccccc2)CSC1)c1ccccc1 [Compound 19, N-(3-Phenethylthietan-3-yl)benzenesulfonamide]
18 | 11.4 | −4.9 | 2.83 | 2.83 | – | – | – | – | PAMPA % retention (membrane retention) [3]: 0.373% | CN(C)S(=O)(=O)NC1(CCc2ccccc2)CSC1 [Compound 20, N,N-Dimethyl-[3-(2-phenylethyl)thietan-3-yl]sulfamoyl-amine]
19 | 2.42 | −5.62 | – | – | 0.06 | 1.16±0.03 | 0.06 | 1.16 ± 0.03 | – | CS(=O)(=O)Nc1cn(-c2ccccc2)nn1 [Compound 30, N-(1-Phenyl-1H-1,2,3-triazol-4-yl)methanesulfonamide]
20 | – | – | – | – | 0.42 | 0.85±0.01 | – | – | PAMPA % retention (membrane retention) [3]: 0.131%; pKa [1, 5]: 5.62±0.02; logP [2, 6]: 0.85±0.01 | CN(C)S(=O)(=O)Nc1cc(-c2ccccc2)on1 [Compound 29, N-(5-Phenylisoxazol-3-yl)-N,N-dimethylaminesulfonamide]
21 | – | – | – | 1.45 | – | – | – | – | – | CN(C)S(=O)(=O)NC1(CCc2ccccc2)CS(=O)C1 (stereo not drawn)
